Results taken from US10315990B2, “Isothiocyanate compounds and isothiocyanate XPO1 protein inhibitor drugs thereof” (DRIVINGFORCE THERAPEUTICS Co., Ltd., priority 2015, dated 2019).

How the values were obtained:
[1] = test system: Saos-2; assay: Inhibitory activity for other high metastasis type cancer cell line (MTT or CCK-8); type: cell-based; conditions: Homo sapiens; Saos-2, 72 hours; read-out: IC50
[2] = test system: IL-6; assay: Serum IL-6 level of IBD animal model (ELISA); type: in vivo, SD rats; conditions: 80 mg/kg, three days after making the TNBS model
Source text: Inflammatory bowel disease is an autoimmune disease. […] The therapeutic effect of the representative compound for the immune system disease or inflammation can be assessed by detecting change in levels of some important cytokines such as TNF-α and IL-6 at downstream of the signal path.

[3] = test system: CaSki; assay: Inhibitory activity for other high metastasis type cancer cell line (MTT or CCK-8); type: cell-based; conditions: Homo sapiens, Ca-Ski; CaSki, 72 hours; read-out: IC50
[4] = test system: Panc-1; assay: as above; type: cell-based; conditions: Homo sapiens; Panc-1, 72 hours; read-out: IC50
[5] = test system: IBD animal model; assay: Macroscopic pathological changes of IBD animal model (enteroclysis with TNBS); type: in vivo, SD rats; conditions: TNBS rats
Summary of the method: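 Male SD rats, eight weeks old (10 per group), given rectal TNBS in 50% ethanol at 100 mg/kg 5 cm from anus; controls received saline. Drug treatment for two weeks, then rectum photographed, weighed and scored macroscopically for ulceration and bleeding.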

[6] = test system: HMLE-Snail cell line; assay: Formation of HMLE-Snail cell line spheroids; type: cell-based; conditions: 10 μg/ml, treated for 24 hours; control = 100; read-out: Colony (%): cell colony number of drug-treated group/cell colony number of control group × 100%
[7] = target: T1, XPO1 protein (Homo sapiens, UniProt O14980); assay: Inhibitory activity for XPO1 protein (NES-GFP nuclear export, laser confocal microscope); type: cell-based; conditions: NES-GFP nuclear export, cells treated for 2 hours
T1 construct: Sixteen hours later, NES-GFP plasmid was transfected with liposome; endogenous in cells

[8] = test system: KYSE-70; assay: Inhibitory activity for other high metastasis type cancer cell line (MTT or CCK-8); type: cell-based; conditions: Homo sapiens; KYSE-70, 72 hours; read-out: IC50
[9] = test system: 786-O; assay: as above; type: cell-based; conditions: Homo sapiens, 786-0; 786-O, 72 hours; read-out: IC50
[10] = test system: HO-8910; assay: Inhibitory activity for high metastasis type ovarian cancer cell line (MTT or CCK-8); type: cell-based; conditions: HO-8910, 72 hours; read-out: IC50
Experimental: (§1) The two cell lines were inoculated on 96-well cell culture plate in an amount of 6000 cells per well and cultured at 37° C. for 24 hours, and then treated solely with the representative compound added therein and cultured. Seventy-two hours later, MTT or CCK-8 method was used to detect the inhibitory activity of the representative compound for the high metastasis type ovarian cancer cell lines.

[11] = test system: A2780; assay: as above; type: cell-based; conditions: Homo sapiens; A2780, 72 hours; read-out: IC50
Experimental: as §1

[12] = test system: Raji; assay: Inhibitory activity for high metastasis type lymphoma cell line (MTT or CCK-8); type: cell-based; conditions: Homo sapiens, 72 hours, read-out: IC50
Experimental: (§2) Jeko-1, Raji and U2932 are three typical high metastasis type lymphoma cell lines. The lymphoma cell line was inoculated on 96-well cell culture plate in an amount of 6000 cells per well and cultured at 37° C. for 24 hours, and then treated solely with the compound added therein and cultured. Seventy-two hours later, MTT or CCK-8 method was used to detect the inhibitory activity of the compound for the two high metastasis type lymphoma cell lines.

[13] = test system: Jeko-1; assay: as above; type: cell-based; conditions: Homo sapiens; Jeko-1, 72 hours; read-out: IC50
Experimental: as §2

[14] = test system: U2932; assay: as above; type: cell-based; conditions: Homo sapiens; U2932, 72 hours; read-out: IC50
Experimental: as §2

[15] = test system: HCT116; assay: Inhibitory activity for high metastasis type colon cancer cell line (MTT or CCK-8); type: cell-based; conditions: Homo sapiens, HCT-116; HCT116, 72 hours; read-out: IC50
[16] = test system: SW620; assay: as above; type: cell-based; conditions: Homo sapiens, SW-620; SW620, 72 hours; read-out: IC50

T1 sequence (O14980 whole entry, species assumed): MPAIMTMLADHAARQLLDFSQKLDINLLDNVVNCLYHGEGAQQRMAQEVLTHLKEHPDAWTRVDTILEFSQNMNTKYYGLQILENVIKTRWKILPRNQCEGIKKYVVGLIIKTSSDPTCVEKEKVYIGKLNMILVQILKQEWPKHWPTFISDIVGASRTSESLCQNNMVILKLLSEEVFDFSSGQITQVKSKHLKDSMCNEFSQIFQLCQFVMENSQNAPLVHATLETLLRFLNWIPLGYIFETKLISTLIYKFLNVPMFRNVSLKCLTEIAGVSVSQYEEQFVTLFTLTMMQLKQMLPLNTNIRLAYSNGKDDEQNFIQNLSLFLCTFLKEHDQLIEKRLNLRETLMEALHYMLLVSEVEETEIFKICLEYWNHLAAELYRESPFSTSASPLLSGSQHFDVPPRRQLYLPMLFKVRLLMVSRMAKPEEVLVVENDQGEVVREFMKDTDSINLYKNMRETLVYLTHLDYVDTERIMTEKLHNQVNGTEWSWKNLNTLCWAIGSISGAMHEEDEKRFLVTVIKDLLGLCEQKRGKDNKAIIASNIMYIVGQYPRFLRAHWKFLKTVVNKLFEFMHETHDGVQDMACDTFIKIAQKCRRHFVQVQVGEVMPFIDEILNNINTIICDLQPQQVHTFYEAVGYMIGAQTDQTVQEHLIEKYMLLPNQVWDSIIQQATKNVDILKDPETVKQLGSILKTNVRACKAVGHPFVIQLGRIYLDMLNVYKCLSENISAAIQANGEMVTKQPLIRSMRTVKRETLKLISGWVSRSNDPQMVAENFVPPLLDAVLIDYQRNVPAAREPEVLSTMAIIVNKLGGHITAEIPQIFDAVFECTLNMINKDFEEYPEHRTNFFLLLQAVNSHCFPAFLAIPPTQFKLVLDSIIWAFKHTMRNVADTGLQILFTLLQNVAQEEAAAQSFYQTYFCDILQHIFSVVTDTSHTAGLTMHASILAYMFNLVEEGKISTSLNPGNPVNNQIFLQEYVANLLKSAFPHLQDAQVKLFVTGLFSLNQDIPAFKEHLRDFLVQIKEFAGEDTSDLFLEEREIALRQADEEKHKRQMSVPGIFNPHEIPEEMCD

## C[S+]([O-])CCCCN=C=S (stereo not shown) [SFN, sulforaphane, reference compound]
[1]
  IC50: 14.5 µM
[2]; Animal-1
  Serum IL-6 level, Animal-1: 2.5 ng/mL
[2]; Animal-2
  Serum IL-6 level, Animal-2: 2.4 ng/mL
[2]; Animal-3
  Serum IL-6 level, Animal-3: 2.3 ng/mL
[3]
  IC50: 11 µM
[4]
  IC50: 12.1 µM
[5]; 80 mg/kg intragastrically daily, score 0-5, 10 animals
  Macroscopic pathological score: 4.0 ± 0.5
[5]; 80 mg/kg
  colon tissue bleeding and ulceration phenomena (in words): small relief extent
[6]
  activity at 10 µg/mL: 90%
[7]
  Activity (μM): inhibitory activity for XPO1 protein (full inhibitory concentration): 35 µM
[8]
  IC50: 11.3 µM
[9]
  IC50: 10.2 µM
[10]
  IC50: 21.3 µM
[11]
  IC50: 23.2 µM
[12]
  IC50: 11 µM
[13]
  IC50: 10.1 µM
[14]
  IC50: 13.4 µM
[15]
  IC50: 13.2 µM
[16]
  IC50: 15.1 µM
